This test concerns the target T1, hKv3.1b (Homo sapiens, UniProt P48547).
T1 construct: expressed in transfected cells
T1 sequence (P48547 1-585 isoform P48547-2): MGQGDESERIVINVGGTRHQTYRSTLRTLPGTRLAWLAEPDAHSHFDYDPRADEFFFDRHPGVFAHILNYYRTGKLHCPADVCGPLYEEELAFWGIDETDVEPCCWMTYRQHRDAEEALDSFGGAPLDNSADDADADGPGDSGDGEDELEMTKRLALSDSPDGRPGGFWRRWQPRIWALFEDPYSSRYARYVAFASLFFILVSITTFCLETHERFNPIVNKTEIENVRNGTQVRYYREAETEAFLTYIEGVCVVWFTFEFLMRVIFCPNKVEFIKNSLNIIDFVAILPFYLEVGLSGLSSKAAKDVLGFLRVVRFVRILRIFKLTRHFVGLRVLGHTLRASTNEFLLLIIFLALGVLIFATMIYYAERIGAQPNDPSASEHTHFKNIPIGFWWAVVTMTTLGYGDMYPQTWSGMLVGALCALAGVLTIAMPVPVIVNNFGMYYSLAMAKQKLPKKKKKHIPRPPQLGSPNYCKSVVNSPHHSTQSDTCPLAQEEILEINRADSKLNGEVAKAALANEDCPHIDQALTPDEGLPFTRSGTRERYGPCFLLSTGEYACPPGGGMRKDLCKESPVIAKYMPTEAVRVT
Description: Automated patch clamp (QPatch-16x) on HEK-293 cells stably expressing hKv3.1b. As to conditions: for ECdelta5 mV: concentration needed to shift the activation threshold 5 mV; for Threshold Shift: maximum absolute hyperpolarizing shift of activation threshold at tested concentrations 0.37-30 μM. The format is cell-based. On the procedure: HEK-293 cells stably expressing hKv3.1b were used for the experiments. Cells were cultured in DMEM medium supplemented with 10% Fetal Bovine Serum, 100 ug/mL Geneticidin and 100 u/mL Penicillin/Streptomycin (all from Gibco). Cells were grown to 80-90% confluency at 37° C. and 5% CO2. On the day of the experiment the cells were detached from the tissue culture flasks by Detachin, resuspended in serum free medium containing 25 mM HEPES and transferred to the cell hotel of the QPatch. The cells were used for experiments 0-5 hours after detachment.
Patch-clamp recordings were performed using the automated recording system QPatch-16x (Sophion Bioscience, Denmark). Cells were centrifuged, SFM removed and the cells were resuspended in extracellular buffer containing (in mM): 145 NaCl, 4 KCl, 1 MgCl2, 2 CaCl2, 10 HEPES and 10 glucose (added fresh on the day of experiment); pH 7.4 adjusted with NaOH, 305 mOsm adjusted with sucrose.
Single cell whole-cell recordings were carried out using an intracellular solution containing (in mM): 120 KCl, 32.25/10 KOH/EGTA, 5.374 CaCl2, 1.75 MgCl2, 10 HEPES, 4 Na2ATP (added fresh on the day), pH 7.2 adjusted with KOH, […] adjusted with sucrose. Cell membrane potentials were held at −80 mV and currents were evoked by voltage steps (200 ms duration) from −70 mV to +10 mV (in 10 mV increments). Vehicle (0.33% DMSO) or increasing concentration of compound (I) were applied and the voltage protocol was run 3 times (resulting in 3 min cpd incubation time). Five increasing concentrations of compound (I) were applied to each cell.
Leak subtraction protocol was applied at −33% of the sweep amplitude, and serial resistance values were constantly monitored.
Any cell where serial resistance exceeded 25 MOhm, membrane resistance less than 200 MOhm or current size at −10 mV less than 200 pA was eliminated from the subsequent analysis.
Data analysis was performed using Sophion's QPatch assay software in combination with Microsoft Excel™ (Redmond, Wash., USA). Current voltage relationships were plotted from the peak current at the individual voltage steps normalized to the vehicle addition at 10 mV. The voltage threshold for channel activation was defined as 5% activation of the peak current at 10 mV in presence of vehicle. The activity of the compounds was described as the ability to shift this current voltage relationship to more hyperpolarized potentials and is given as the maximum absolute shift possible at the tested concentrations (0.37, 1.11, 3.33, 10, 30 μM). Concentration response curves were plotted from the threshold shift at the individual concentrations and were fitted excel fit model 205 sigmoidal dose-response model (fit=A+((B−A)/1+((C/x)^D)))), where A is the minimum value, B the maximum value, C the EC50 value and D the slope of the curve. The concentration needed to shift the threshold 5 mV was readout from this curve (ECdelta5 mV).
A general note: Patch clamp records ionic current or voltage across a cell membrane.

For the compound `Cc1ccc(S(=O)(=O)n2ccc(C(=O)NCc3nnc(C)o3)c2)cc1` [Compound 31, N-[(5-methyl-1,3,4-oxadiazol-2-yl)methyl]-1-(p-tolylsulfonyl)pyrrole-3-carboxamide], the “ECdelta5 mV” value is 9600 nM and the “Threshold Shift” value amounted to 13 mV.

As to `Cc1ccc(S(=O)(=O)n2ccc(C(=O)NCc3cc(C)n[nH]3)c2)cc1` [Compound 116, 1-(4-methylbenzene-1-sulfonyl)-N-[(3-methyl-1H-pyrazol-5-yl)methyl]-1H-pyrrole-3-carboxamide], the “ECdelta5 mV” value came to 2600 nM and the “Threshold Shift” value is 25 mV.

In the case of `Cc1ccc(S(=O)(=O)n2ccc(C(=O)NCc3ccn(C)n3)c2)cc1` [Compound 36, N-[(1-methylpyrazol-3-yl)methyl]-1-(p-tolylsulfonyl) pyrrole-3-carboxamide], the “ECdelta5 mV” value worked out at 810 nM and the “Threshold Shift” value turned out to be 27 mV.

Consider `CNc1cnc(CNC(=O)c2ccn(S(=O)(=O)c3ccc(C)cc3F)c2)cn1` [Compound 106, 1-(2-fluoro-4-methylbenzene-1-sulfonyl)-N-{[5-(methylamino)pyrazin-2-yl]methyl}-1H-pyrrole-3-carboxamide], for which the “ECdelta5 mV” value is 550 nM and the “Threshold Shift” value came to 42 mV.

On to `Cc1cnc(CNC(=O)c2ccn(S(=O)(=O)c3cc(C)c(F)c(C)c3)c2)cn1` [Compound 100, 1-(4-fluoro-3,5-dimethyl-phenyl)sulfonyl-N-[(5-methylpyrazin-2-yl)methyl]pyrrole-3-carboxamide], for which the “ECdelta5 mV” value is given as 4300 nM and the “Threshold Shift” value came to 15 mV.

For `COc1ccc(S(=O)(=O)n2ccc(C(=O)NCc3cnc(C)cn3)c2)c(F)c1` [Compound 96, 1-(2-fluoro-4-methoxy-phenyl)sulfonyl-N-[(5-methylpyrazin-2-yl)methyl]pyrrole-3-carboxamide], the “ECdelta5 mV” value turned out to be 1300 nM and the “Threshold Shift” value was found to be 35 mV.

`Cc1ccc(S(=O)(=O)n2ccc(C(=O)NCc3ccc(F)cn3)c2)cc1` [Compound 13, N-[(5-fluoro-2-pyridyl)methyl]-1-(p-tolylsulfonyl) pyrrole-3-carboxamide]: the “ECdelta5 mV” value was 1700 nM and the “Threshold Shift” value is reported as 13 mV.

Consider `Cc1ccc(CNC(=O)c2ccn(S(=O)(=O)c3ccccc3C)c2)nc1` [Compound 77, 1-(2-methylbenzene-1-sulfonyl)-N-[(5-methylpyridin-2-yl)methyl]-1H-pyrrole-3-carboxamide], for which the “ECdelta5 mV” value amounted to 3300 nM and the “Threshold Shift” value worked out at 12 mV.

For the compound `Cc1ccc(S(=O)(=O)n2ccc(C(=O)NCc3ncn(C)n3)c2)cc1` [Compound 42, N-[(1-methyl-1,2,4-triazol-3-yl)methyl]-1-(p-tolylsulfonyl)pyrrole-3-carboxamide], the “ECdelta5 mV” value came out at 1700 nM and the “Threshold Shift” value is given as 25 mV.

In the case of `Cc1ccc(S(=O)(=O)n2ccc(C(=S)NCc3cnc(C)cn3)c2)cc1` [Compound 94, 1-(4-methylbenzene-1-sulfonyl)-N-[(5-methylpyrazin-2-yl)methyl]-1H-pyrrole-3-carbothioamide], the “ECdelta5 mV” value came to 1100 nM and the “Threshold Shift” value turned out to be 19 mV.

`COc1ccc(S(=O)(=O)n2ccc(C(=O)NCc3ncc(C)cn3)c2)cc1` [Compound 72, 1-(4-methoxybenzene-1-sulfonyl)-N-[(5-methylpyrimidin-2-yl)methyl]-1H-pyrrole-3-carboxamide]: the “ECdelta5 mV” value is listed as 2800 nM and the “Threshold Shift” value is on record as 20 mV.

With `Cc1ccc(S(=O)(=O)n2cc(C)c(C(=O)NCc3cnc(C)cn3)c2)cc1` [Compound 8, 4-methyl-N-[(5-methylpyrazin-2-yl)methyl]-1-(p-tolylsulfonyl)pyrrole-3-carboxamide], the “ECdelta5 mV” value turned out to be 4000 nM and the “Threshold Shift” value is 12 mV.

Take `COc1ccc(S(=O)(=O)n2ccc(C(=O)NCc3ccn(C)n3)c2)c(Cl)c1` [Compound 117, 1-(2-chloro-4-methoxybenzene-1-sulfonyl)-N-[(1-methyl-1H-pyrazol-3-yl)methyl]-1H-pyrrole-3-carboxamide]: the “ECdelta5 mV” value amounted to 1500 nM and the “Threshold Shift” value was 21 mV.

`Cc1cnc(CNC(=O)c2ccn(S(=O)(=O)c3ccc(C(F)(F)F)cc3)c2)cn1` [Compound 91, N-[(5-methylpyrazin-2-yl)methyl]-1-[4-(trifluoromethyl)benzene-1-sulfonyl]-1H-pyrrole-3-carboxamide]: the “ECdelta5 mV” value came to 1800 nM and the “Threshold Shift” value is 20 mV.

Turning to `COc1ccc(S(=O)(=O)n2ccc(C(=O)NCc3cnc(C)cn3)c2)c(C)c1` [Compound 98, 1-(4-methoxy-2-methyl-phenyl)sulfonyl-N-[(5-methylpyrazin-2-yl)methyl]pyrrole-3-carboxamide], the “ECdelta5 mV” value amounted to 710 nM and the “Threshold Shift” value was determined as 36 mV.

Consider `Cc1ccc(S(=O)(=O)n2ccc(C(=O)NCc3cnco3)c2)cc1` [Compound 50, 1-(4-methylbenzene-1-sulfonyl)-N-[(1,3-oxazol-5-yl)methyl]-1H-pyrrole-3-carboxamide], for which the “ECdelta5 mV” value was 3300 nM and the “Threshold Shift” value is 13 mV.

As for `Cc1ccc(S(=O)(=O)n2ccc(C(=O)NCc3cn(C)cn3)c2)cc1` [Compound 40, N-[(1-methylimidazol-4-yl)methyl]-1-(p-tolylsulfonyl)pyrrole-3-carboxamide], the “ECdelta5 mV” value is 2000 nM and the “Threshold Shift” value is given as 22 mV.

As for `Cc1ccc(S(=O)(=O)n2ccc(C(=O)NCc3nc(C)cs3)c2)cc1` [Compound 34, N-[(4-methylthiazol-2-yl)methyl]-1-(p-tolylsulfonyl)pyrrole-3-carboxamide], the “ECdelta5 mV” value turned out to be 1100 nM and the “Threshold Shift” value was found to be 18 mV.

`Cc1ccc(S(=O)(=O)n2ccc(C(=O)NCc3cccnc3)c2)cc1` [Compound 14, 1-(p-tolylsulfonyl)-N-(3-pyridylmethyl) pyrrole-3-carboxamide]: the “ECdelta5 mV” value came to 1500 nM and the “Threshold Shift” value came out at 23 mV.

Regarding `Cc1ccc(S(=O)(=O)n2ccc(C(=O)NCc3ncc(C)cn3)c2)cc1` [Compound 1, N-[(5-methylpyrimidin-2-yl)methyl]-1-(p-tolylsulfonyl)pyrrole-3-carboxamide], the “ECdelta5 mV” value amounted to 1600 nM and the “Threshold Shift” value turned out to be 27 mV.

As for `Cc1cccc(S(=O)(=O)n2ccc(C(=O)NCc3cnc(C)cn3)c2)c1` [Compound 30, N-[(5-methylpyrazin-2-yl)methyl]-1-(m-tolylsulfonyl)pyrrole-3-carboxamide], the “ECdelta5 mV” value was 2500 nM and the “Threshold Shift” value came to 17 mV.

As for `Cc1ccc(S(=O)(=O)n2ccc(C(=O)NCc3cnn(C)c3)c2)cc1` [Compound 37, N-[(1-methylpyrazol-4-yl)methyl]-1-(p-tolylsulfonyl) pyrrole-3-carboxamide], the “ECdelta5 mV” value is given as 1800 nM and the “Threshold Shift” value worked out at 22 mV.

For the compound `COc1ccc(S(=O)(=O)n2ccc(C(=O)NCc3nc(C)no3)c2)cc1` [Compound 68, 1-(4-methoxybenzene-1-sulfonyl)-N-[(3-methyl-1,2,4-oxadiazol-5-yl)methyl]-1H-pyrrole-3-carboxamide], the “ECdelta5 mV” value was determined as 2300 nM and the “Threshold Shift” value was determined as 21 mV.

The values are drawn from US20200131156A1, “ARYLSULFONYLPYROLECARBOXAMIDE DERIVATIVES AS Kv3 POTASSIUM CHANNEL ACTIVATORS” (H. Lundbeck A/S, priority 2018, published 2020).
